{
  "source": "paper PMC5218480",
  "about": "(PLoS ONE, 2017)",
  "system": "MV-4-11 cells",
  "assay": "Gene expression microarray analysis (Affymetrix PrimeView) and GSEA",
  "type": "cell-based, human",
  "set-up": "RFU PODN (11730768_x_at) / Fold change /veh PODN (11730768_x_at) / RFU LINC00158 (11744669_a_at) / Fold change /veh LINC00158 (11744669_a_at) / RFU DUSP10 (11751237_a_at) / Fold change /veh DUSP10 (11751237_a_at) / RFU ID3 (11757404_x_at) / Fold change /veh ID3 (11757404_x_at) / RFU PLEKHG5 (11737974_s_at) / Fold change /veh PLEKHG5 (11737974_s_at) / RFU LRRC4B (11730491_at) / Fold change /veh LRRC4B (11730491_at) / RFU GIMAP4 (11747438_a_at) / Fold change /veh GIMAP4 (11747438_a_at) / RFU KRT8 (11758183_x_at) / Fold change /veh KRT8 (11758183_x_at) / RFU CNN1 (11734310_a_at) / Fold change /veh CNN1 (11734310_a_at) / RFU VPS37D (11726825_at) / Fold change /veh VPS37D (11726825_at) / RFU C10orf10 (11716522_x_at) / Fold change /veh C10orf10 (11716522_x_at) / RFU KIR2DL2 /// KIR2DL4 /// KIR2DL5A /// KIR2DL5B /// KIR2DS1 /// KIR2DS2 /// KIR2DS3 /// KIR2DS4 /// KIR3DL3 /// KIR3DL3 /// KIR3DS1 (11738374_at) / Fold change /veh KIR2DL2 /// KIR2DL4 /// KIR2DL5A /// KIR2DL5B /// KIR2DS1 /// KIR2DS2 /// KIR2DS3 /// KIR2DS4 /// KIR3DL3 /// KIR3DL3 /// KIR3DS1 (11738374_at) / RFU C1QL1 (11718748_at) / Fold change /veh C1QL1 (11718748_at) / RFU TMPRSS4 (11747572_a_at) / Fold change /veh TMPRSS4 (11747572_a_at) / RFU HAMP (11756126_x_at) / Fold change /veh HAMP (11756126_x_at) / RFU RNFT2 (11725882_a_at) / Fold change /veh RNFT2 (11725882_a_at) / RFU NR4A2 (11747474_a_at) / Fold change /veh NR4A2 (11747474_a_at) / RFU ABCC12 (11746883_a_at) / Fold change /veh ABCC12 (11746883_a_at) / RFU TMEM136 (11760407_x_at) / Fold change /veh TMEM136 (11760407_x_at) / RFU CLDN22 /// WWC2 (11732394_at) / Fold change /veh CLDN22 /// WWC2 (11732394_at) / RFU HLA-DPB1 (11760878_x_at) / Fold change /veh HLA-DPB1 (11760878_x_at) / RFU SPINT1 (11716480_a_at) / Fold change /veh SPINT1 (11716480_a_at) / RFU GAP43 (11754022_s_at) / Fold change /veh GAP43 (11754022_s_at) / RFU A4GNT (11735810_at) / Fold change /veh A4GNT (11735810_at) / RFU PRB3 (11715151_x_at) / Fold change /veh PRB3 (11715151_x_at) / RFU TUBB4B (11761932_at) / Fold change /veh TUBB4B (11761932_at) / RFU CAPN14 (11732068_a_at) / Fold change /veh CAPN14 (11732068_a_at) / RFU TMCC2 (11721928_a_at) / Fold change /veh TMCC2 (11721928_a_at) / RFU IRGQ (11745062_a_at) / Fold change /veh IRGQ (11745062_a_at) / RFU FAM174B (11720279_a_at) / Fold change /veh FAM174B (11720279_a_at) / RFU TMPRSS4 (11748680_a_at) / Fold change /veh TMPRSS4 (11748680_a_at) / RFU FAM212B (11763350_a_at) / Fold change /veh FAM212B (11763350_a_at) / RFU PLEKHG5 (11743358_a_at) / Fold change /veh PLEKHG5 (11743358_a_at) / RFU ZSCAN30 (11745921_a_at) / Fold change /veh ZSCAN30 (11745921_a_at) / RFU CMKLR1 (11741424_a_at) / Fold change /veh CMKLR1 (11741424_a_at) / RFU LOC101060620 /// MAPK8IP1 (11723275_at) / Fold change /veh LOC101060620 /// MAPK8IP1 (11723275_at) / RFU SPTSSB (11747773_x_at) / Fold change /veh SPTSSB (11747773_x_at) / RFU PRSS12 (11739890_at) / Fold change /veh PRSS12 (11739890_at) / RFU BIN1 (11741810_x_at) / Fold change /veh BIN1 (11741810_x_at) / RFU WNT11 (11732464_a_at) / Fold change /veh WNT11 (11732464_a_at) / RFU C10orf10 (11716521_a_at) / Fold change /veh C10orf10 (11716521_a_at) / RFU C5orf56 (11738089_at) / Fold change /veh C5orf56 (11738089_at) / RFU CYB561 (11721691_x_at) / Fold change /veh CYB561 (11721691_x_at) / RFU ANKRD19P (11752326_a_at) / Fold change /veh ANKRD19P (11752326_a_at) / RFU OR2T12 /// OR2T33 /// OR2T8 (11738714_s_at) / Fold change /veh OR2T12 /// OR2T33 /// OR2T8 (11738714_s_at) / RFU VCAN (11748164_a_at) / Fold change /veh VCAN (11748164_a_at) / RFU JSRP1 (11732532_at) / Fold change /veh JSRP1 (11732532_at) / RFU KRTAP10-11 (11738290_x_at) / Fold change /veh KRTAP10-11 (11738290_x_at) / RFU MYO3A (11730013_a_at) / Fold change /veh MYO3A (11730013_a_at) / RFU EBF3 (11725865_a_at) / Fold change /veh EBF3 (11725865_a_at) / RFU CAMK2N1 (11719241_x_at) / Fold change /veh CAMK2N1 (11719241_x_at) / RFU C5orf56 (11738088_a_at) / Fold change /veh C5orf56 (11738088_a_at) / RFU OLFML3 (11715873_a_at) / Fold change /veh OLFML3 (11715873_a_at) / RFU LOC100653217 /// NTM (11731650_a_at) / Fold change /veh LOC100653217 /// NTM (11731650_a_at) / RFU MAPK11 (11762145_a_at) / Fold change /veh MAPK11 (11762145_a_at) / RFU FIZ1 (11724087_x_at) / Fold change /veh FIZ1 (11724087_x_at) / RFU OASL (11726364_x_at) / Fold change /veh OASL (11726364_x_at) / RFU SOX15 (11748057_x_at) / Fold change /veh SOX15 (11748057_x_at) / RFU CD79A (11719716_a_at) / Fold change /veh CD79A (11719716_a_at) / RFU HIST1H1D (11736915_at) / Fold change /veh HIST1H1D (11736915_at) / RFU CASKIN2 (11723855_a_at) / Fold change /veh CASKIN2 (11723855_a_at) / RFU LOC730098 (11760151_x_at) / Fold change /veh LOC730098 (11760151_x_at) / RFU OR4N2 (11742367_at) / Fold change /veh OR4N2 (11742367_at) / RFU PRRT2 (11749266_a_at) / Fold change /veh PRRT2 (11749266_a_at) / RFU SNX32 (11753110_a_at) / Fold change /veh SNX32 (11753110_a_at) / RFU CDHR5 (11726645_a_at) / Fold change /veh CDHR5 (11726645_a_at) / RFU RCAN1 (11760418_a_at) / Fold change /veh RCAN1 (11760418_a_at) / RFU FAM167A (11723789_a_at) / Fold change /veh FAM167A (11723789_a_at) / RFU FAM26E (11764081_at) / Fold change /veh FAM26E (11764081_at) / RFU ISYNA1 (11749810_s_at) / Fold change /veh ISYNA1 (11749810_s_at) / RFU ACY1 (11761880_at) / Fold change /veh ACY1 (11761880_at) / RFU 11764098_at / Fold change /veh 11764098_at / RFU SAMD14 (11745864_x_at) / Fold change /veh SAMD14 (11745864_x_at) / RFU NPB (11741838_a_at) / Fold change /veh NPB (11741838_a_at) / RFU TMPRSS6 (11731388_a_at) / Fold change /veh TMPRSS6 (11731388_a_at) / RFU KRTAP10-2 (11738614_at) / Fold change /veh KRTAP10-2 (11738614_at) / RFU ARHGAP8 /// PRR5-ARHGAP8 (11727945_x_at) / Fold change /veh ARHGAP8 /// PRR5-ARHGAP8 (11727945_x_at) / RFU KRTAP5-7 /// NADSYN1 (11734609_at) / Fold change /veh KRTAP5-7 /// NADSYN1 (11734609_at) / RFU RASL12 (11751679_a_at) / Fold change /veh RASL12 (11751679_a_at) / RFU CDKN2B (11736163_a_at) / Fold change /veh CDKN2B (11736163_a_at) / RFU PRF1 (11729649_at) / Fold change /veh PRF1 (11729649_at) / RFU, ZNF638 /// ZNF638-IT1 / Fold change vs veh, ZNF638 /// ZNF638-IT1 / RFU, PANK3 / Fold change vs veh, PANK3 / RFU, SH3YL1 / Fold change vs veh, SH3YL1 / RFU, ZEB2 / Fold change vs veh, ZEB2 / RFU, NRIP1 / Fold change vs veh, NRIP1 / RFU, PTTG1IP / Fold change vs veh, PTTG1IP / RFU, CAPN2 / Fold change vs veh, CAPN2 / RFU, MED14 / Fold change vs veh, MED14 / RFU, SNORA58 / Fold change vs veh, SNORA58 / RFU, C1orf63 / Fold change vs veh, C1orf63 / RFU, LRRFIP1 / Fold change vs veh, LRRFIP1 / RFU, NDUFAF7 / Fold change vs veh, NDUFAF7 / RFU, SLC12A2 / Fold change vs veh, SLC12A2 / RFU, IBTK / Fold change vs veh, IBTK / RFU, ESF1 / Fold change vs veh, ESF1 / Fold change vs veh, TMEM50B / RFU, TAOK1 / Fold change vs veh, TAOK1 / RFU, ACBD3 / Fold change vs veh, ACBD3 / RFU, TMA16 / Fold change vs veh, TMA16 / RFU, RWDD3 / Fold change vs veh, RWDD3 / RFU, BCAT1 / Fold change vs veh, BCAT1 / RFU, EDEM3 / Fold change vs veh, EDEM3 / RFU, TMEM33 / Fold change vs veh, TMEM33 / RFU, WDR75 / Fold change vs veh, WDR75 / RFU, AHCTF1 / Fold change vs veh, AHCTF1 / RFU, TFRC / Fold change vs veh, TFRC / RFU, ZDHHC17 / Fold change vs veh, ZDHHC17 / RFU, NOM1 / Fold change vs veh, NOM1 / RFU, ARL8B / Fold change vs veh, ARL8B / RFU, ZBTB11 / Fold change vs veh, ZBTB11 / RFU, TAMM41 / Fold change vs veh, TAMM41 / RFU, KIAA1704 /// LOC100996395 / Fold change vs veh, KIAA1704 /// LOC100996395 / RFU, ING1 / Fold change vs veh, ING1 / RFU, TRMT61B / Fold change vs veh, TRMT61B / RFU, FUBP3 / Fold change vs veh, FUBP3 / RFU, TP53 / Fold change vs veh, TP53 / RFU, TNKS2 / Fold change vs veh, TNKS2 / RFU, ZFP14 / Fold change vs veh, ZFP14 / RFU, ACTR2 / Fold change vs veh, ACTR2 / RFU, PPP3R1 / Fold change vs veh, PPP3R1 / RFU, PIK3R1 / Fold change vs veh, PIK3R1 / RFU, HNRNPA1 / Fold change vs veh, HNRNPA1 / RFU, RNF170 / Fold change vs veh, RNF170 / RFU, ZNF28 / Fold change vs veh, ZNF28 / RFU, RNGTT / Fold change vs veh, RNGTT / RFU, OGT / Fold change vs veh, OGT / RFU, BRD1 / Fold change vs veh, BRD1 / RFU, MARS / Fold change vs veh, MARS / RFU, ZNF655 / Fold change vs veh, ZNF655 / RFU, FAHD1 / Fold change vs veh, FAHD1 / RFU, BDP1 / Fold change vs veh, BDP1 / RFU, LRRCC1 / Fold change vs veh, LRRCC1 / RFU, ARID1A / Fold change vs veh, ARID1A / RFU, ZNF146 / Fold change vs veh, ZNF146 / RFU, ZNF330 / Fold change vs veh, ZNF330 / RFU, GPN3 / Fold change vs veh, GPN3 / RFU, C9orf123 / Fold change vs veh, C9orf123 / RFU, N4BP2L2 / Fold change vs veh, N4BP2L2 / RFU, ARFIP1 / Fold change vs veh, ARFIP1 / RFU, FAM179B / Fold change vs veh, FAM179B / RFU, BCL10 / Fold change vs veh, BCL10 / RFU, UHRF1BP1L / Fold change vs veh, UHRF1BP1L / RFU, BET1 / Fold change vs veh, BET1 / RFU, CNOT2 / Fold change vs veh, CNOT2 / RFU, ZNF268 / Fold change vs veh, ZNF268 / Fold change vs veh, ZNF507 / RFU, DGCR2 / Fold change vs veh, DGCR2 / RFU, WDSUB1 / Fold change vs veh, WDSUB1 / Fold change vs veh, HSP90B1 /// MIR3652 / RFU, ADSS / Fold change vs veh, ADSS / RFU, GK / Fold change vs veh, GK / RFU, ZNF148 / Fold change vs veh, ZNF148 / RFU, TAF9 / Fold change vs veh, TAF9 / RFU, SLC1A5 / Fold change vs veh, SLC1A5 / RFU, SLMO2 / Fold change vs veh, SLMO2 / RFU, ABCC4 / Fold change vs veh, ABCC4 / RFU, LOC101060439 /// RAP1B / Fold change vs veh, LOC101060439 /// RAP1B / RFU, RFX7 / Fold change vs veh, RFX7 / RFU, GTPBP10 / Fold change vs veh, GTPBP10 / RFU, CNEP1R1 / Fold change vs veh, CNEP1R1 / RFU, BIVM-ERCC5 /// ERCC5 / Fold change vs veh, BIVM-ERCC5 /// ERCC5 / RFU, ILF3 / Fold change vs veh, ILF3 / RFU 11762660_at / Fold change /veh 11762660_at / RFU VCAN (11757783_s_at) / Fold change /veh VCAN (11757783_s_at) / RFU DDX43 (11728927_at) / Fold change /veh DDX43 (11728927_at) / RFU KRT8 (11758188_x_at) / Fold change /veh KRT8 (11758188_x_at) / RFU NKD1 (11759106_at) / Fold change /veh NKD1 (11759106_at) / RFU SRD5A1 (11742802_a_at) / Fold change /veh SRD5A1 (11742802_a_at) / RFU TPSAB1 /// TPSB2 (11721975_s_at) / Fold change /veh TPSAB1 /// TPSB2 (11721975_s_at) / RFU GSTM3 (11746129_a_at) / Fold change /veh GSTM3 (11746129_a_at) / RFU IL23R (11737362_x_at) / Fold change /veh IL23R (11737362_x_at) / RFU TMEM51 (11727254_a_at) / Fold change /veh TMEM51 (11727254_a_at) / RFU PIWIL2 (11732686_x_at) / Fold change /veh PIWIL2 (11732686_x_at) / RFU ORM1 (11744905_x_at) / Fold change /veh ORM1 (11744905_x_at) / RFU CCDC152 (11743942_at) / Fold change /veh CCDC152 (11743942_at) / RFU ECM1 (11717891_a_at) / Fold change /veh ECM1 (11717891_a_at) / RFU IL23R (11748794_a_at) / Fold change /veh IL23R (11748794_a_at) / RFU TNFAIP8L3 (11732012_x_at) / Fold change /veh TNFAIP8L3 (11732012_x_at) / RFU MBOAT4 (11741988_at) / Fold change /veh MBOAT4 (11741988_at) / RFU 11764193_at / Fold change /veh 11764193_at / RFU TMEM53 (11763286_at) / Fold change /veh TMEM53 (11763286_at) / RFU MAGEB2 (11727129_at) / Fold change /veh MAGEB2 (11727129_at) / RFU TMEM200A (11744735_a_at) / Fold change /veh TMEM200A (11744735_a_at) / RFU CCDC152 (11751479_a_at) / Fold change /veh CCDC152 (11751479_a_at) / RFU FAM211A (11726209_a_at) / Fold change /veh FAM211A (11726209_a_at) / RFU RGS16 (11746705_a_at) / Fold change /veh RGS16 (11746705_a_at) / RFU VCAN (11755009_s_at) / Fold change /veh VCAN (11755009_s_at) / RFU RHOB (11743442_s_at) / Fold change /veh RHOB (11743442_s_at) / RFU RGS16 (11720943_a_at) / Fold change /veh RGS16 (11720943_a_at) / RFU RGS16 (11720944_at) / Fold change /veh RGS16 (11720944_at) / RFU, VPS4B / Fold change vs veh, VPS4B / RFU, CREB1 / Fold change vs veh, CREB1 / RFU, DNAJC13 / Fold change vs veh, DNAJC13 / RFU, GNAQ / Fold change vs veh, GNAQ / RFU, CDK5R1 / Fold change vs veh, CDK5R1 / RFU, ZRANB3 / Fold change vs veh, ZRANB3 / RFU, CUL4A / Fold change vs veh, CUL4A / RFU, CCNY / Fold change vs veh, CCNY / RFU, UFL1 / Fold change vs veh, UFL1 / RFU, COG3 / Fold change vs veh, COG3 / RFU, DIAPH2 / Fold change vs veh, DIAPH2 / RFU, SKA2 / Fold change vs veh, SKA2 / RFU, AFF3 / Fold change vs veh, AFF3 / RFU, LMF1 / Fold change vs veh, LMF1 / RFU, IPO11 / Fold change vs veh, IPO11 / RFU, DFFB / Fold change vs veh, DFFB / RFU, FOXP1 / Fold change vs veh, FOXP1 / RFU, CARD8 / Fold change vs veh, CARD8 / RFU, STRN3 / Fold change vs veh, STRN3 / RFU, ADK / Fold change vs veh, ADK / RFU, RASSF2 / Fold change vs veh, RASSF2 / RFU, WIPF1 / Fold change vs veh, WIPF1 / RFU, LARP1B / Fold change vs veh, LARP1B / RFU, RASA1 / Fold change vs veh, RASA1 / RFU, RB1 / Fold change vs veh, RB1 / RFU, PPFIA1 / Fold change vs veh, PPFIA1 / RFU, MAT2A / Fold change vs veh, MAT2A / RFU, CCT5 / Fold change vs veh, CCT5 / RFU, WDR92 / Fold change vs veh, WDR92 / RFU, CUX1 / Fold change vs veh, CUX1 / RFU, TTC7A / Fold change vs veh, TTC7A / RFU, TMEM135 / Fold change vs veh, TMEM135 / RFU, DEPTOR / Fold change vs veh, DEPTOR / RFU, CPM / Fold change vs veh, CPM / RFU, DNAJB6 / Fold change vs veh, DNAJB6 / RFU, CACNA2D3 / Fold change vs veh, CACNA2D3 / RFU, DTX4 / Fold change vs veh, DTX4 / RFU, TFCP2 / Fold change vs veh, TFCP2 / RFU, GMCL1 /// GMCL1P1 / Fold change vs veh, GMCL1 /// GMCL1P1 / RFU, AEBP2 / Fold change vs veh, AEBP2 / RFU, SNHG1 /// SNORD22 /// SNORD25 /// SNORD26 /// SNORD27 /// SNORD28 /// SNORD29 /// SNORD31 / Fold change vs veh, SNHG1 /// SNORD22 /// SNORD25 /// SNORD26 /// SNORD27 /// SNORD28 /// SNORD29 /// SNORD31 / Fold change (Aza/veh), C12orf56 (ProbeSet 11735607_a_at) / Fold change (ACY-1035/veh), C12orf56 (ProbeSet 11735607_a_at) / Fold change (Aza/veh), FGFR1OP (ProbeSet 11751329_s_at) / Fold change (ACY-1035/veh), FGFR1OP (ProbeSet 11751329_s_at) / Fold change (Aza/veh), VPS36 (ProbeSet 11739960_a_at) / Fold change (ACY-1035/veh), VPS36 (ProbeSet 11739960_a_at) / RFU SYPL1 (11715823_x_at) / Fold change /veh SYPL1 (11715823_x_at) / RFU IGFBP7 (11715501_s_at) / Fold change /veh IGFBP7 (11715501_s_at) / RFU REEP3 (11722064_at) / Fold change /veh REEP3 (11722064_at) / RFU IGLL1 (11728026_x_at) / Fold change /veh IGLL1 (11728026_x_at): dose or concentration left out as unconfirmed",
  "details": "ProbeSet 11731093_s_at; LIST B",
  "data": [
    {"smiles": "Nc1ccc(-c2cccs2)cc1NC(=O)c1ccc2c(c1)cc(C1CC1)n2CCN1CCOCC1", "note": "[ACY-1035]", "values": [
      {"measurement": "Fold change vs veh, BRD1", "value": 0.87}
    ]}
  ]
}
